# In patent US20070049564A1 (Wyeth, priority 2005, published 2007):
# Like-named read-outs stand apart in the source and are kept apart here.
# Columns and labels:
# S. agalactiae GC 4564 = assay: MIC, broth microdilution; settings: Streptococcus agalactiae
# E. faecalis GC 2265 = assay: MIC, broth microdilution; settings: Enterococcus faecalis
# E. coli = assay: Range of MIC for E. coli strains; settings: Escherichia coli
# E. coli GC 2270 = assay: MIC, broth microdilution; settings: Escherichia coli
# E. coli GC 2233 = assay: MIC, broth microdilution; settings: Escherichia coli
# S. typhimurium GC 2172 = assay: MIC, broth microdilution; settings: Salmonella enterica, TYPHIMURIUM
# E. coli GC 1073 = assay: MIC, broth microdilution; settings: Escherichia coli
# E. coli GC 2236 = assay: MIC, broth microdilution; settings: Escherichia coli
# E. faecalis GC 4555 = assay: MIC, broth microdilution; settings: Enterococcus faecalis
# E. coli GC 2235 = assay: MIC, broth microdilution; settings: Escherichia coli
# S. aureus GC 6469 = assay: MIC, broth microdilution; settings: Staphylococcus aureus
# S. aureus GC 6335 = assay: MIC, broth microdilution; settings: Staphylococcus aureus
# S. aureus GC 1079 = assay: MIC, broth microdilution; settings: Staphylococcus aureus
# E. faecium GC 2243 = assay: MIC, broth microdilution; settings: Enterococcus faecium
# c. albicans GC 3066 = assay: MIC, broth microdilution
# Staph. = assay: Range of MIC for Staph. strains, including MRSA; settings: Staphylococcus aureus
# E. coli GC 3226 = assay: MIC, broth microdilution; settings: Escherichia coli
# E. faecium GC 4556 = assay: MIC, broth microdilution; settings: Enterococcus faecium
# E. coli GC 2271 = assay: MIC, broth microdilution; settings: Escherichia coli
# S. pyogenes GC 4563 = assay: MIC, broth microdilution; settings: Streptococcus pyogenes
compound,measurement,setting,value
"CCCCC(=O)OCOC(=O)N(CC(=O)Nc1cc(N(C)C)c2c(c1O)C(=O)C1=C(O)[C@]3(O)C(=O)C(C(N)=O)=C(O)[C@@H](N(C)C)[C@@H]3C[C@@H]1C2)C(C)(C)C [Example 61, ({[(2-{[(5aR,6aS,7S,10aS)-9-(aminocarbonyl)-4,7-bis(dimethylamino)-1,8,10a,11-tetrahydroxy-10,12-dioxo-5,5a,6,6a,7,10,10a,12-octahydrotetracen-2-yl]amino}-2-oxoethyl)(tert-butyl)amino]carbonyl}oxy)methyl pentanoate]",MIC,"S. agalactiae GC 4564; GC4564, pre-incubation in human serum",0.5 µg/mL
same,MIC,"S. agalactiae GC 4564; GC4564, pre-incubation in mouse serum",0.25 µg/mL
same,MIC,"S. agalactiae GC 4564; GC4564, pre-incubation in water",0.25 µg/mL
same,MIC,"E. faecalis GC 2265; GC2265, pre-incubation in human serum",2 µg/mL
same,MIC,"E. faecalis GC 2265; GC2265, pre-incubation in mouse serum",0.5 µg/mL
same,MIC,"E. faecalis GC 2265; GC2265, pre-incubation in water",2 µg/mL
same,MIC,"E. coli; 20 h, read-out: Range of MIC, E. coli (Mouse Serum)",0.5 to 1 µg/mL
same,MIC,"E. coli; read-out: Minimum inhibitory concentration (MIC), E. coli (Human Serum)",4 to 32 µg/mL
same,MIC,"E. coli GC 2270; GC2270, pre-incubation in human serum",4 µg/mL
same,MIC,"E. coli GC 2270; GC2270, pre-incubation in mouse serum",0.5 µg/mL
same,MIC,"E. coli GC 2270; GC2270, pre-incubation in water",16 µg/mL
same,MIC,"E. coli GC 2233; GC2233, pre-incubation in human serum",8 µg/mL
same,MIC,"E. coli GC 2233; GC2233, pre-incubation in mouse serum",1 µg/mL
same,MIC,"E. coli GC 2233; GC2233, pre-incubation in water",16 µg/mL
same,MIC,S. typhimurium GC 2172; pre-incubation in human serum,64 µg/mL
same,MIC,S. typhimurium GC 2172; pre-incubation in mouse serum,1 µg/mL
same,MIC,S. typhimurium GC 2172; pre-incubation in water,> 64 µg/mL
same,MIC,"E. coli GC 1073; GC1073, pre-incubation in human serum",8 µg/mL
same,MIC,"E. coli GC 1073; GC1073, pre-incubation in mouse serum",0.5 µg/mL
same,MIC,"E. coli GC 1073; GC1073, pre-incubation in water",32 µg/mL
same,MIC,"E. coli GC 2236; GC2236, pre-incubation in human serum",4 µg/mL
same,MIC,"E. coli GC 2236; GC2236, pre-incubation in mouse serum",0.5 µg/mL
same,MIC,"E. coli GC 2236; GC2236, pre-incubation in water",16 µg/mL
same,MIC,"E. faecalis GC 4555; GC4555, pre-incubation in human serum",2 µg/mL
same,MIC,"E. faecalis GC 4555; GC4555, pre-incubation in mouse serum",1 µg/mL
same,MIC,"E. faecalis GC 4555; GC4555, pre-incubation in water",2 µg/mL
same,MIC,"E. coli GC 2235; GC2235, pre-incubation in human serum",4 µg/mL
same,MIC,"E. coli GC 2235; GC2235, pre-incubation in mouse serum",0.5 µg/mL
same,MIC,"E. coli GC 2235; GC2235, pre-incubation in water",16 µg/mL
same,MIC,"S. aureus GC 6469; GC6469, pre-incubation in human serum",0.5 µg/mL
same,MIC,"S. aureus GC 6469; GC6469, pre-incubation in mouse serum",0.5 µg/mL
same,MIC,"S. aureus GC 6469; GC6469, pre-incubation in water",2 µg/mL
same,MIC,"S. aureus GC 6335; GC6335, pre-incubation in human serum",1 µg/mL
same,MIC,"S. aureus GC 6335; GC6335, pre-incubation in mouse serum",0.5 µg/mL
same,MIC,"S. aureus GC 6335; GC6335, pre-incubation in water",1 µg/mL
same,MIC,"S. aureus GC 1079; GC1079, pre-incubation in human serum",0.5 µg/mL
same,MIC,"S. aureus GC 1079; GC1079, pre-incubation in mouse serum",0.25 µg/mL
same,MIC,"S. aureus GC 1079; GC1079, pre-incubation in water",1 µg/mL
same,MIC,"E. faecium GC 2243; GC2243, pre-incubation in human serum",1 µg/mL
same,MIC,"E. faecium GC 2243; GC2243, pre-incubation in mouse serum",0.25 µg/mL
same,MIC,"E. faecium GC 2243; GC2243, pre-incubation in water",0.5 µg/mL
same,MIC,"c. albicans GC 3066; Candida albicans, GC3066",> 64 µg/mL
same,MIC,c. albicans GC 3066; pre-incubation in human serum,>64 UG/ML
same,MIC,c. albicans GC 3066; pre-incubation in mouse serum,>64 UG/ML
same,MIC,"Staph.; MRSA, read-out: Range of MIC, Staph (Mouse Serum)",0.25 to 0.5 µg/mL
same,MIC,"Staph.; MRSA, read-out: Range of MIC, Staph (Water)",0.5 to 2 µg/mL
same,MIC,"Staph.; read-out: Minimum inhibitory concentration (MIC), Staph (Human Serum)",0.5 to 1 µg/mL
same,MIC,"Staph.; read-out: Minimum inhibitory concentration (MIC), Staph (Water)",0.5 to 2 µg/mL
same,MIC,"E. coli GC 3226; GC3226, pre-incubation in human serum",8 µg/mL
same,MIC,"E. coli GC 3226; GC3226, pre-incubation in mouse serum",0.5 µg/mL
same,MIC,"E. coli GC 3226; GC3226, pre-incubation in water",32 µg/mL
same,MIC,"E. faecium GC 4556; GC4556, pre-incubation in human serum",2 µg/mL
same,MIC,"E. faecium GC 4556; GC4556, pre-incubation in mouse serum",0.5 µg/mL
same,MIC,"E. faecium GC 4556; GC4556, pre-incubation in water",2 µg/mL
same,MIC,"E. coli GC 2271; GC2271, pre-incubation in human serum",4 µg/mL
same,MIC,"E. coli GC 2271; GC2271, pre-incubation in mouse serum",0.5 µg/mL
same,MIC,"E. coli GC 2271; GC2271, pre-incubation in water",16 µg/mL
same,MIC,"S. pyogenes GC 4563; GC4563, pre-incubation in human serum",0.25 µg/mL
same,MIC,"S. pyogenes GC 4563; GC4563, pre-incubation in mouse serum",0.25 µg/mL
same,MIC,"S. pyogenes GC 4563; GC4563, pre-incubation in water",0.5 µg/mL
